Test [1] concerns the target recombinant human ABHD6 (33-337) (Homo sapiens (Human), UniProt Q9BV23). The test can be described thus: Evaluation of ABHD6 enzyme inhibitory activity (arachidonic acid production from 1-arachidonoyl glycerol, RapidFire-MS). The test is classed as biochemical. The following applies: inhibition of arachidonic acid production, 10 μmol/L 1-arachidonoyl glycerol, 1 hour, room temperature. As for the experimental part: The recombinant human ABHD6 (33-337) was a GST-tagged ABHD6, and one which was expressed in E. coli, then purified with a Glutathione-Sepharose 4B resin, and then concentrated was used. The enzyme reaction was carried out at room temperature using a 384-well microplate made of polypropylene, and wells to which no enzyme was added were designated as a blank group.
One hour after the start of the enzyme reaction, methanol containing, as an internal standard substance, arachidonic acid-d8 (Cayman Chemical) and 1% formic acid was added to stop enzymatic reaction. The upper part of the enzyme reaction plate was sealed with aluminum, and centrifugation was performed at 560 g for 5 minutes at room temperature. Then, arachidonic acid as an enzyme reaction product and arachidonic acid-ds as the internal standard substance were quantified with RapidFire (registered trademark)-Mass Spectrometry system.

In test [2] the target is human ABHD6 (Homo sapiens (Human), UniProt Q9BV23). The test can be described thus: Measurement of binding affinity for human ABHD6 (BRET, HEK293 cells expressing NanoLuc-human ABHD6 fusion protein). As to conditions: BRET competition with fluorescent probe molecule 100 nmol/L in HEK293 cells expressing NanoLuc-human ABHD6. As for the experimental part: The binding affinity of the test compound for human ABHD6 was measured using bioluminescence resonance energy transfer (hereinafter, abbreviated as BRET) as an index. The bioluminescence resonance energy transfer is induced by the proximity of a probe molecule and a NanoLuc-human ABHD6 fusion protein, which is caused by allowing a fluorescent probe molecule and a test compound to act in a competitive manner using HEK293 cells forcibly expressing the NanoLuc-human ABHD6 fusion protein.
human ABHD6, sequence (Q9BV23 whole entry, the tested form may be a part): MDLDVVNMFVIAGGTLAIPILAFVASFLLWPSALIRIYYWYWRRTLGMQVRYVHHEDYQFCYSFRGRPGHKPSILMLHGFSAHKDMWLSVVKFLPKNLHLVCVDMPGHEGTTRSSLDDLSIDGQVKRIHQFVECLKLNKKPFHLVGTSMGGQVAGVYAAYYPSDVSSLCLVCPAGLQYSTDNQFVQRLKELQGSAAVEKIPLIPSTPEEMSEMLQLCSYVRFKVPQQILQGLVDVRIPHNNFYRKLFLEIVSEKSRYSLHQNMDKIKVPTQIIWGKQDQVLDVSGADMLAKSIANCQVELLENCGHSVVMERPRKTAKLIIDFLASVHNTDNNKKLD
The test compound and the compound described in Example 2 as a control substance were each dissolved in dimethyl sulfoxide (DMSO) to prepare a 10 mmol/L solution. The prepared 10 mmol/L solution was thawed at the time of use, serially diluted with DMSO, and subjected to an experiment.
HEK293 cells expressing a NanoLuc-human ABHD6 fusion protein were statically cultured at 37° C. in the presence of 5% CO2 using inactivated (56° C., 30 min) 9.8 vol % non-dialyzed-FBS (containing 0.5 vol % GENETICIN and 1% penicillin-streptomycin). The subculture was performed by the following method.
The culture medium was removed, and the cells were washed once with phosphate buffered saline without Ca^2+ and Mg^2+. An appropriate amount of trypsin-EDTA was added, and the cells were incubated at room temperature. After the cells were detached, a culture medium in a volume 10-fold the volume of trypsin-EDTA (0.05%) was added to stop an enzyme reaction. The cells were collected in a centrifuge tube, and centrifuged at room temperature for 3 minutes at 120 g, and the supernatant was removed. The cells were suspended in an appropriate amount of culture medium and seeded in a culture flask.
HEK293 cells expressing a NanoLuc-human ABHD6 fusion protein were prepared, and then cryopreserved so as to be 5.0×10^6 cells/mL/vial in CELLBANKER2, and the cells were subjected to an experiment. HBSS (+) containing 20 mmol/L HEPES (pH 7.3) and 0.1% BSA was prepared and used as an assay buffer. The cells were thawed and suspended in the assay buffer to prepare a cell suspension of 2×10^5 cells/mL. […] The plate was allowed to stand at 37° C. for 30 minutes in the presence of 5% CO2. Then, a probe molecule (10 mmol/L in DMSO) having a fluorophore was diluted with the assay buffer so as to have a final concentration of 100 nmol/L, and added to the assay plate in an amount of 15 μL each. Further, this was allowed to stand at 37° C. for 30 minutes in the presence of 5% CO2. Then, a Nano-Glo (registered trademark) Vivazine (trademark) substrate (Promega Corporation) was diluted with the assay buffer according to the method described in the protocol, and added to the assay plate in an amount of 10 μL each, and this was allowed to stand at room temperature for 1 hour. Thereafter, the luminescence and fluorescence intensity were measured using a GloMax (registered trademark) discover system. The ratio between the emission intensity through the 450 nm bandpass filter and the fluorescence intensity through the 600 nm longpass filter was defined as the measured value of each sample. The measured value of the group containing the control substance at a final concentration of 30 μmol/L was defined as 100% inhibition. The measured value of the group not containing the compound was defined as 0% inhibition. The IC50 value of the test compound was determined from the measured value at each test compound concentration.
Background: Bioluminescence resonance energy transfer reports proximity on the nanometre scale.

Structures are written as SMILES.

recombinant human ABHD6 (33-337), sequence (Q9BV23 33-337): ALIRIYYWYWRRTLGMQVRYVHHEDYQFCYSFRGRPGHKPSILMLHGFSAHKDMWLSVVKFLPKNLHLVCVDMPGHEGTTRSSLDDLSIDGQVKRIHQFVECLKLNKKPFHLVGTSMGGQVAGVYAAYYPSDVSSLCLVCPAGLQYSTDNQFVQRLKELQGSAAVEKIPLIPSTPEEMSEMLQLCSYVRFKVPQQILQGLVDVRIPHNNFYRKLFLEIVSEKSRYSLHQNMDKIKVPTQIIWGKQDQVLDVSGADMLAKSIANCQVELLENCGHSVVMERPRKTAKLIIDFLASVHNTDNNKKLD

One may read the IC50 as the midpoint of a concentration-inhibition curve. For the molecule `O=C(c1cc2c(s1)CCOC2)N1C[C@H]2[C@H](Nc3ccc(Br)nn3)CC(F)(F)[C@H]2C1` [Example 16, [(3aR,6R,6aS)-6-[(6-Bromo-3-pyridazinyl)amino]-4,4-difluorohexahydrocyclopenta[c]pyrrol-2(1H)-yl](6,7-dihydro-4H-thieno[3,2-c]pyran-2-yl)methanone], the half-maximal inhibitory concentration (IC50) in test [1] turned out to be 1 nM; in test [2] it was 4 nM.
In the same order, the values of `Cc1ccc(C(=O)N2C[C@@H]3CC[C@@H](N(Cc4ccccc4)c4ccc(Br)nn4)[C@@H]3C2)s1` [Example 6-2, [(3aS,4R,6aR)-4-[Benzyl(6-bromo-3-pyridazinyl)amino]hexahydrocyclopenta[c]pyrrol-2(1H)-yl](5-methyl-2-thienyl)methanone] are 1 nM and 1 nM.
In the case of `Cc1ccc(C(=O)N2C[C@@H]3CC[C@@H](Nc4ccc(I)nn4)[C@@H]3C2)s1` [Example 5, [(3aS,4R,6aR)-4-[(6-Iodo-3-pyridazinyl)amino]hexahydrocyclopenta[c]pyrrol-2(1H)-yl](5-methyl-2-thienyl)methanone], the IC50 in test [1] worked out at 1 nM; in test [2], 3 nM.
In the same order, the values of `O=C(c1cc2nn3c(c2s1)CCC3)N1C[C@@H]2CC[C@@H](Nc3ccc(Br)nn3)[C@@H]2C1` [Example 3-6, [(3aS,4R,6aR)-4-[(6-Bromo-3-pyridazinyl)amino]hexahydrocyclopenta[c]pyrrol-2(1H)-yl](7,8-dihydro-6H-pyrrolo[1,2-b]thieno[2,3-d]pyrazol-2-yl)methanone] are 2 nM and 6 nM.
Take `O=C(c1cc2nn(C3CC3)cc2s1)N1C[C@@H]2CC[C@@H](Nc3ccc(Br)nn3)[C@@H]2C1` [Example 3-10, [(3aS,4R,6aR)-4-[(6-Bromo-3-pyridazinyl)amino]hexahydrocyclopenta[c]pyrrol-2(1H)-yl](2-cyclopropyl-2H-thieno[3,2-c]pyrazol-5-yl)methanone]: the values for the IC50 in test [1] and in test [2] were 1 nM and 2 nM, respectively.
`Cc1ccc(C(=O)N2C[C@@H]3CC[C@@H](n4ccc5cc(Cl)nnc54)[C@@H]3C2)s1` (racemic) [Example 8-1, rel-[(3aS,4R,6aR)-4-(3-Chloro-7H-pyrrolo[2,3-c]pyridazin-7-yl)hexahydrocyclopenta[c]pyrrol-2(1H)-yl](5-methyl-2-thienyl)methanone]: the IC50 is 1 nM in test [1] and 5 nM in test [2].
In the same order, the values of `O=C(c1cc2c(s1)CCOC2)N1C[C@@H]2CC[C@@H](Nc3ccc(Cl)nn3)[C@]2(F)C1` [Example 12, {(3aR,4R,6aS)-4-[(6-Chloro-3-pyridazinyl)amino]-3a-fluorohexahydrocyclopenta[c]pyrrol-2(1H)-yl}(6,7-dihydro-4H-thieno[3,2-c]pyran-2-yl)methanone] are 1 nM and 1 nM.
In the same order, the values of `O=C(C1CC2CCC1CC2)N1C[C@@H]2CC[C@@H](Nc3ccc(Br)nn3)[C@@H]2C1` (stereo partly drawn) [Example 2-14, Bicyclo[2.2.2]oct-2-yl[(3aS,4R,6aR)-4-[(6-bromo-3-pyridazinyl)amino]hexahydrocyclopenta[c]pyrrol-2(1H)-yl]methanone] are 2 nM and 16 nM.
In the same order, the values of `O=C(c1cc2c(s1)CCOC2)N1C[C@@H]2CC[C@@H](Nc3ccc(Cl)nn3)[C@@H]2C1` [Example 1-4, [(3aS,4R,6aR)-4-[(6-Chloro-3-pyridazinyl)amino]hexahydrocyclopenta[c]pyrrol-2(1H)-yl](6,7-dihydro-4H-thieno[3,2-c]pyran-2-yl)methanone] are 1 nM and 2 nM.
As to `Cc1ccc(C(=O)N2C[C@@H]3CC[C@@H](Nc4ccc(Br)nn4)[C@]3(F)C2)s1` [Example 10, [(3aR,4R,6aS)-4-[(6-Bromopyridazin-3-yl)amino]-3a-fluoro-1.3.4.5.6.6a-hexahydrocyclopenta[c]pyrrol-2-yl]-(5-methyl-2-thienyl)methanone], the results for the IC50 in test [1] and in test [2] were < 1 nM and 2 nM, respectively.
Turning to `Cc1ccc(C(=O)N2C[C@@H]3CC[C@@H](Nc4ccc(Br)nn4)[C@@H]3C2)s1` [Example 2, [(3aS,4R,6aR)-4-[(6-Bromo-3-pyridazinyl)amino]hexahydrocyclopenta[c]pyrrol-2(1H)-yl](5-methyl-2-thienyl)methanone], the IC50 in test [1] is < 1 nM; in test [2], 1 nM.
In the same order, the values of `O=C(c1cc2c(s1)CCOC2)N1C[C@@H]2CC3(CC3)[C@@H](Nc3ccc(Br)nn3)[C@@H]2C1` [Example 15, [(3aS, 4S, 6aR)-4-[(6-Bromopyridazin-3-yl)amino]spiro[1,3,3a,4,6,6a-hexahydrocyclopenta[c]pyrrole-5,1′-cyclopropan]-2-yl]-(6,7-dihydro-4H-thieno[3,2-c]pyran-2-yl)methanone] are 1 nM and 1 nM.
`Cc1ccc(C(=O)N2C[C@@H]3CC[C@@H](Nc4ccc(Cl)nn4)[C@@H]3C2)s1` [Example 1-2, {(3aS,4R,6aR)-4-[(6-Chloro-3-pyridazinyl)amino]hexahydrocyclopenta[c]pyrrol-2(1H)-yl}(5-methyl-2-thienyl)methanone]: the values for the IC50 in test [1] and in test [2] were 1 nM and 5 nM, respectively.
In the same order, the values of `Cc1ccc(C(=O)N2C[C@@H]3CC[C@@H](Nc4nnc(Cl)cc4C#N)[C@@H]3C2)s1` (relative stereo) [Example 9, rel-6-Chloro-3-({(3aS,4R,6aR)-2-[(5-methyl-2-thienyl)carbonyl]octahydrocyclopenta[c]pyrrol-4-yl}amino)-4-pyridazinecarbonitrile] are 2 nM and 8 nM.
In the same order, the values of `O=C(c1ccc(C(F)F)s1)N1C[C@@H]2CC[C@@H](Nc3ccc(Cl)nn3)[C@@H]2C1` [Example 1, {(3aS,4R,6aR)-4-[(6-Chloro-3-pyridazinyl)amino]hexahydrocyclopenta[c]pyrrol-2(1H)-yl}[5-(difluoromethyl)-2-thienyl]methanone] are 1 nM and 11 nM.
In the same order, the values of `Cn1cc2sc(C(=O)N3C[C@@H]4CC[C@@H](Nc5ccc(Br)nn5)[C@@H]4C3)cc2n1` [Example 3-9, [(3aS,4R,6aR)-4-[(6-Bromo-3-pyridazinyl)amino]hexahydrocyclopenta[c]pyrrol-2(1H)-yl](2-methyl-2H-thieno[3,2-c]pyrazol-5-yl)methanone] are 1 nM and 5 nM.
As for `CN1C(=O)CCc2sc(C(=O)N3C[C@@H]4CC[C@@H](Nc5ccc(Br)nn5)[C@@H]4C3)cc21` [Example 3, 2-{[(3aS,4R,6aR)-4-[(6-Bromo-3-pyridazinyl)amino]hexahydrocyclopenta[c]pyrrol-2(1H)-yl]carbonyl}-4-methyl-6,7-dihydrothieno[3,2-b]pyridin-5(4H)-one], the IC50 in test [1] worked out at 5 nM; in test [2] it was 62 nM.
In test [2], `CN(C)c1ncc(C(=O)N2C[C@@H]3CC[C@@H](Nc4ccc(Br)nn4)[C@@H]3C2)s1` [Example 2-6, [(3aS,4R,6aR)-4-[(6-Bromo-3-pyridazinyl)amino]hexahydrocyclopenta[c]pyrrol-2(1H)-yl][2-(dimethylamino)-1,3-thiazol-5-yl]methanone] had a concentration for half-maximal inhibition (IC50) of 25 nM.

These data come from patent publication US20240010658A1, “ABHD6 ANTAGONIST” (ONO PHARMACEUTICAL CO., LTD., priority 2021, published 2024).
